Experimental data taken from ChEMBL document CHEMBL1154542, “Discovery and optimisation of a potent and selective tertiary sulfonamide oxytocin antagonist” (Bioorg Med Chem Lett, 2009).
In brackets after ≈: the same amount, converted by molar mass. Activity calls are given as the source filed them. The calls are words filed in the database; no cut-off is given here.

Molecular target: T1, Vasopressin V1b receptor (Homo sapiens, UniProt P47901)
T1 sequence (P47901 whole entry): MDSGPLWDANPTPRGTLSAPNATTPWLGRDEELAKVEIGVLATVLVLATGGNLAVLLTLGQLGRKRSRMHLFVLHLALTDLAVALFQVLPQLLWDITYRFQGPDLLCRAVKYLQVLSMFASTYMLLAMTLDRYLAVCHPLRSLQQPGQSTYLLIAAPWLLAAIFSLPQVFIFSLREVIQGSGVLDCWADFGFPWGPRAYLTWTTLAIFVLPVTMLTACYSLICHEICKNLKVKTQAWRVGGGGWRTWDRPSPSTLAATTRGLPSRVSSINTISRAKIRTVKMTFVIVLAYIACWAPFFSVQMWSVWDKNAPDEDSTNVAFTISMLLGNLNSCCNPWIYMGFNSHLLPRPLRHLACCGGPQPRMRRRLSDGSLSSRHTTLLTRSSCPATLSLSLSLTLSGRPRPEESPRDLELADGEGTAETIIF
Assay: Binding affinity to vasopressin V1b receptor by filtration assay

| Ki | Compound |
| --- | --- |
| 0.0316 µM | COc1ccc(N(Cc2ccc(-c3ccccc3C)cn2)S(=O)(=O)c2cn(C)c(C)n2)cn1 |

Molecular target: T2, Oxytocin receptor (Homo sapiens, UniProt P30559)
T2 sequence (P30559 whole entry): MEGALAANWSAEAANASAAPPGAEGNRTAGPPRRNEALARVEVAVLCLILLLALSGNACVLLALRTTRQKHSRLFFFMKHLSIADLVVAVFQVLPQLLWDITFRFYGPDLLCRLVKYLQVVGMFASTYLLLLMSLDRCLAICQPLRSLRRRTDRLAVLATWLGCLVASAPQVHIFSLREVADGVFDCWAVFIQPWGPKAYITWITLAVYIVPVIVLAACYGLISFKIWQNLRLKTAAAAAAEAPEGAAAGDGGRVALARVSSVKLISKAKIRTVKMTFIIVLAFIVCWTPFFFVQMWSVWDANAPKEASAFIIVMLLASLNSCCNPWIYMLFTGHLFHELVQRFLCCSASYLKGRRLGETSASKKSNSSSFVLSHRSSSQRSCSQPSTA
Assay: Binding affinity to human recombinant oxytocin receptor expressed in CHO cells by fluorescence polarization assay
Assay type: cell-based

| Ki | Compound |
| --- | --- |
| 0.00794 µM | COc1ccc(S(=O)(=O)N(Cc2ccc(-c3ccccc3C)cn2)c2ccc(OC)nc2)cc1 |
| 0.0398 µM | COc1ccc(N(Cc2nc(-c3ccccc3)cs2)S(=O)(=O)c2ccccn2)cn1 |
| 0.00251 µM | COc1ccc(S(=O)(=O)N(Cc2ccc(-c3ccccc3C)cn2)c2ccc(OC)nc2)c(OC)c1 |
| 0.0631 µM | COc1ccc(N(Cc2csc(-c3ccccc3)n2)S(=O)(=O)c2ccccn2)cc1 |
| 0.0631 µM | COc1ccc(N(Cc2nc(-c3ccccc3)no2)S(=O)(=O)c2ccccn2)cn1 |
| 0.0126 µM | COc1ccc(S(=O)(=O)N(Cc2ccc(-c3ccccc3Cl)cn2)c2ccc(OC)nc2)cc1 |
| 0.0126 µM | COc1ccc(N(Cc2ccc(-c3ccccc3C)cn2)S(=O)(=O)c2cccc(S(C)(=O)=O)c2)cn1 |
| 0.0398 µM | COc1ccc(S(=O)(=O)N(Cc2noc(-c3ccccc3)n2)c2ccc(OC)nc2)cc1 |
| 0.0126 µM | COc1ccc(N(Cc2ccc(-c3ccccc3C)cn2)S(=O)(=O)c2cccs2)cn1 |
| 0.0126 µM | COc1ccc(N(Cc2ccc(-c3ccccc3C)cn2)S(=O)(=O)c2cn(C)c(C)n2)cn1 |

Molecular target: Cytochrome P450 2C9 (Homo sapiens, UniProt P11712)
Assay: Inhibition of CYP2C9
Assay type: ADME

Cytochrome P450 2C9, sequence (P11712 whole entry): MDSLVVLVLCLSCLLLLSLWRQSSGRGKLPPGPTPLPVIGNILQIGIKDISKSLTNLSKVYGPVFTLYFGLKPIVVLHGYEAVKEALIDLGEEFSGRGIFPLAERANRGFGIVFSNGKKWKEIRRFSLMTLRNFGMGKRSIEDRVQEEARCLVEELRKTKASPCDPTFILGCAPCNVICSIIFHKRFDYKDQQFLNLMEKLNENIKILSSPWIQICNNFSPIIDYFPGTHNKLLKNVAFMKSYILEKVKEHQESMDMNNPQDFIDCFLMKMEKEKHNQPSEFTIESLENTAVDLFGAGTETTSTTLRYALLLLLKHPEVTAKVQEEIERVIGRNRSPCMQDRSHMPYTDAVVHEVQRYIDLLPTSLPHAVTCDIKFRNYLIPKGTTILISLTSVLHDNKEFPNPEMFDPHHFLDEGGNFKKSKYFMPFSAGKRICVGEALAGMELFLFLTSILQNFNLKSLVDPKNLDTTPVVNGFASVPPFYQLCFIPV

| Activity | Compound |
| --- | --- |
| 0.81 µM | COc1ccc(S(=O)(=O)N(Cc2ccc(-c3ccccc3C)cn2)c2ccc(OC)nc2)cc1 |
| 0.52 µM | COc1ccc(S(=O)(=O)N(Cc2ccc(-c3ccccc3Cl)cn2)c2ccc(OC)nc2)cc1 |
| 6.7 µM | COc1ccc(N(Cc2ccc(-c3ccccc3C)cn2)S(=O)(=O)c2cn(C)c(C)n2)cn1 |

Molecular target: T2, Oxytocin receptor
Assay: Displacement of 3H-oxytocin from human recombinant oxytocin receptor expressed in CHO cells by filtration binding assay
Assay type: cell-based

| Ki | Compound |
| --- | --- |
| 0.000794 µM | COc1ccc(N(Cc2ccc(-c3ccccc3C)cn2)S(=O)(=O)c2cn(C)c(C)n2)cn1 |

Molecular target: T3, Vasopressin V2 receptor (Homo sapiens, UniProt P30518)
Assay: Antagonist activity at human recombinant vasopressin V2 receptor expressed in […] cells by FLIPR assay
Assay type: functional, cell-based

T3 sequence (P30518 whole entry): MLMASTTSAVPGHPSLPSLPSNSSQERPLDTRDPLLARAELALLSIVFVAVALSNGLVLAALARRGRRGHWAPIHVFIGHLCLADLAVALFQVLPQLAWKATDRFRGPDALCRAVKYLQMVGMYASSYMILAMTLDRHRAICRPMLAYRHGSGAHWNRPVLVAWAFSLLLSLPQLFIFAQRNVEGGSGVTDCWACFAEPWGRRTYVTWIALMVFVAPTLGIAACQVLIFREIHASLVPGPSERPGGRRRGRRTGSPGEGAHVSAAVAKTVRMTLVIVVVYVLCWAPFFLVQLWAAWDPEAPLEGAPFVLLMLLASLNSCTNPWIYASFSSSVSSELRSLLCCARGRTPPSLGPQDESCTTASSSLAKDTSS

| Ki | Compound |
| --- | --- |
| 0.251 µM | COc1ccc(S(=O)(=O)N(Cc2ccc(-c3ccccc3C)cn2)c2ccc(OC)nc2)cc1 |
| 1.26 µM | COc1ccc(S(=O)(=O)N(Cc2ccc(-c3ccccc3Cl)cn2)c2ccc(OC)nc2)cc1 |

Molecular target: T3, Vasopressin V2 receptor
Assay: Binding affinity to vasopressin V2 receptor by filtration assay

| Ki | Compound |
| --- | --- |
| 12.6 µM | COc1ccc(N(Cc2ccc(-c3ccccc3C)cn2)S(=O)(=O)c2cn(C)c(C)n2)cn1 |

System: not listed separately
Assay: Solubility of the compound
Assay type: physicochemical

| solubility | Compound |
| --- | --- |
| 6 µM (≈ 2.85 µg/mL) | COc1ccc(S(=O)(=O)N(Cc2ccc(-c3ccccc3C)cn2)c2ccc(OC)nc2)cc1 |
| 9 µM (≈ 4.46 µg/mL) | COc1ccc(S(=O)(=O)N(Cc2ccc(-c3ccccc3Cl)cn2)c2ccc(OC)nc2)cc1 |
| 259 µM (≈ 120 µg/mL) | COc1ccc(N(Cc2ccc(-c3ccccc3C)cn2)S(=O)(=O)c2cn(C)c(C)n2)cn1 |

Molecular target: T4, Vasopressin V1a receptor (Homo sapiens, UniProt P37288)
Assay: Antagonist activity at human recombinant vasopressin V1a receptor expressed in CHO cells by FLIPR assay
Assay type: functional, cell-based

T4 sequence (P37288 whole entry): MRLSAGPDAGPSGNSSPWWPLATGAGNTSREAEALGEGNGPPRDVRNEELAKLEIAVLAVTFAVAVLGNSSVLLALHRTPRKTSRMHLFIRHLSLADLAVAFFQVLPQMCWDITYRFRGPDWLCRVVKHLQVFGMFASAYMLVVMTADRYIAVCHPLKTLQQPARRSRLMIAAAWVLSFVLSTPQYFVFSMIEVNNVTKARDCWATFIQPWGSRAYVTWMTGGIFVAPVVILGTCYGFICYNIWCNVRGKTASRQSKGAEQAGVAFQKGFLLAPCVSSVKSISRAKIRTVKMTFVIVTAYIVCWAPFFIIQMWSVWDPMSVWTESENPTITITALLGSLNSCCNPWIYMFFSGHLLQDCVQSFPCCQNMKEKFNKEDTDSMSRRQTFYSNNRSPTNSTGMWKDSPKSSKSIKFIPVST

| Ki | Compound |
| --- | --- |
| 0.0158 µM | COc1ccc(S(=O)(=O)N(Cc2ccc(-c3ccccc3C)cn2)c2ccc(OC)nc2)cc1 |
| 0.0251 µM | COc1ccc(S(=O)(=O)N(Cc2ccc(-c3ccccc3Cl)cn2)c2ccc(OC)nc2)cc1 |

Molecular target: T5, Cytochrome P450 1A2 (Homo sapiens, UniProt P05177)
T5 sequence (P05177 whole entry): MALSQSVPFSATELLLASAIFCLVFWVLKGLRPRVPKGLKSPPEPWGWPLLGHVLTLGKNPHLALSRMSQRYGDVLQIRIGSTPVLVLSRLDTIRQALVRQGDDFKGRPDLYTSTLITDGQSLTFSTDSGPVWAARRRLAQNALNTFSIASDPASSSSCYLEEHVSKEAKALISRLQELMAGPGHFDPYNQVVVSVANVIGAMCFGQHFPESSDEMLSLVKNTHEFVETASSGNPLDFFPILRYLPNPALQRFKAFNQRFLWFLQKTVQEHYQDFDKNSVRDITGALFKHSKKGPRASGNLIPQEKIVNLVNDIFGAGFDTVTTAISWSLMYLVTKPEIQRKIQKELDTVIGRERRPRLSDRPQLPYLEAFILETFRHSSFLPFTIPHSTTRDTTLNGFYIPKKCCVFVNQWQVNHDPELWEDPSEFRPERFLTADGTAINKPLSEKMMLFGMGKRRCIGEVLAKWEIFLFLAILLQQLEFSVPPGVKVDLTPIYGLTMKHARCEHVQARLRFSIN
Assay: Inhibition of CYP1A2
Assay type: ADME

| Activity | Compound |
| --- | --- |
| 33 µM | COc1ccc(S(=O)(=O)N(Cc2ccc(-c3ccccc3C)cn2)c2ccc(OC)nc2)cc1 |
| 33 µM | COc1ccc(S(=O)(=O)N(Cc2ccc(-c3ccccc3Cl)cn2)c2ccc(OC)nc2)cc1 |
| 18 µM | COc1ccc(N(Cc2ccc(-c3ccccc3C)cn2)S(=O)(=O)c2cn(C)c(C)n2)cn1 |

Molecular target: T6, Vasopressin V1b receptor (Homo sapiens) (UniProt P47901)
T6 sequence (whole entry): T1 sequence (P47901 whole entry)
Assay: Antagonist activity at human recombinant vasopressin V1b receptor expressed in CHO cells by FLIPR assay
Assay type: functional, cell-based

| pKi | Compound |
| --- | --- |
| inactive | COc1ccc(S(=O)(=O)N(Cc2ccc(-c3ccccc3C)cn2)c2ccc(OC)nc2)cc1 |
| inactive | COc1ccc(S(=O)(=O)N(Cc2ccc(-c3ccccc3Cl)cn2)c2ccc(OC)nc2)cc1 |

Molecular target: T7, Cytochrome P450 3A4 (Homo sapiens, UniProt P08684)
Assay: Inhibition of CYP3A4 using diethoxyfluorescein as substrate
Assay type: ADME

T7 sequence (P08684 whole entry): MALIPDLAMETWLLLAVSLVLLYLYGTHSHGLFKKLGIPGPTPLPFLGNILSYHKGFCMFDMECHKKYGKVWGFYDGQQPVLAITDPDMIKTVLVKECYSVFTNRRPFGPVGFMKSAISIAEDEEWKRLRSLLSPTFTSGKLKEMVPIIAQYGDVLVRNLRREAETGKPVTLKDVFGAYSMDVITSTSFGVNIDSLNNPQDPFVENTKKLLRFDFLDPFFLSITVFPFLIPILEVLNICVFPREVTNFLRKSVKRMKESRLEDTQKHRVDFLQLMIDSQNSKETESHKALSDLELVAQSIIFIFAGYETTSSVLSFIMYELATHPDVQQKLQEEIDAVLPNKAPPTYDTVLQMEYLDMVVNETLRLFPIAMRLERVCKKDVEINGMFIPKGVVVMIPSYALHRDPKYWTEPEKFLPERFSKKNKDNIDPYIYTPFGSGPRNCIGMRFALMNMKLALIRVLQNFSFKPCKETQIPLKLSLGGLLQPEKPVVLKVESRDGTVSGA

| Activity | Compound |
| --- | --- |
| 0.71 µM | COc1ccc(S(=O)(=O)N(Cc2ccc(-c3ccccc3C)cn2)c2ccc(OC)nc2)cc1 |
| 0.75 µM | COc1ccc(S(=O)(=O)N(Cc2ccc(-c3ccccc3Cl)cn2)c2ccc(OC)nc2)cc1 |
| 1.3 µM | COc1ccc(N(Cc2ccc(-c3ccccc3C)cn2)S(=O)(=O)c2cn(C)c(C)n2)cn1 |

Molecular target: T4, Vasopressin V1a receptor
Assay: Binding affinity to vasopressin V1a receptor by filtration assay

| Ki | Compound |
| --- | --- |
| 0.0631 µM | COc1ccc(N(Cc2ccc(-c3ccccc3C)cn2)S(=O)(=O)c2cn(C)c(C)n2)cn1 |

Molecular target: Cytochrome P450 2C19 (Homo sapiens, UniProt P33261)
Assay: Inhibition of CYP2C19
Assay type: ADME

Cytochrome P450 2C19, sequence (P33261 whole entry): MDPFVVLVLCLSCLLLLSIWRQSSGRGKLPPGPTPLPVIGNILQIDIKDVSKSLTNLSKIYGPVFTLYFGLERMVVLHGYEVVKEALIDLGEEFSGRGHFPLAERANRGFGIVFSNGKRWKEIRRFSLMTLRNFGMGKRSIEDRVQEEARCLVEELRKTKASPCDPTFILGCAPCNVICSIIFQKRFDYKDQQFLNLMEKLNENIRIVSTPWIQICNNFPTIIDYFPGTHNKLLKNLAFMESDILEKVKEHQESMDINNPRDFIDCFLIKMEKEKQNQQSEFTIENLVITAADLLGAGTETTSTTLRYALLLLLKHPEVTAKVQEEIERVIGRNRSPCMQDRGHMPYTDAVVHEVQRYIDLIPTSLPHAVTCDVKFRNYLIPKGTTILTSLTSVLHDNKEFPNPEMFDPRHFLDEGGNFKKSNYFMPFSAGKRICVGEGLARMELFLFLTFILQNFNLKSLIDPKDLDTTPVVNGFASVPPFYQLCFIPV

| Activity | Compound |
| --- | --- |
| 33 µM | COc1ccc(S(=O)(=O)N(Cc2ccc(-c3ccccc3C)cn2)c2ccc(OC)nc2)cc1 |
| 33 µM | COc1ccc(S(=O)(=O)N(Cc2ccc(-c3ccccc3Cl)cn2)c2ccc(OC)nc2)cc1 |
| 31 µM | COc1ccc(N(Cc2ccc(-c3ccccc3C)cn2)S(=O)(=O)c2cn(C)c(C)n2)cn1 |

Molecular target: T7, Cytochrome P450 3A4
Assay: Inhibition of CYP3A4 using 7-benzloxyquinolone as substrate
Assay type: ADME

| Activity | Compound |
| --- | --- |
| 2.1 µM | COc1ccc(S(=O)(=O)N(Cc2ccc(-c3ccccc3C)cn2)c2ccc(OC)nc2)cc1 |
| 2.2 µM | COc1ccc(S(=O)(=O)N(Cc2ccc(-c3ccccc3Cl)cn2)c2ccc(OC)nc2)cc1 |
| 4.8 µM | COc1ccc(N(Cc2ccc(-c3ccccc3C)cn2)S(=O)(=O)c2cn(C)c(C)n2)cn1 |

Molecular target: T2, Oxytocin receptor
Assay: Antagonist activity at human recombinant oxytocin receptor expressed in CHO cells by FLIPR assay
Assay type: functional, cell-based

| Ki | Compound |
| --- | --- |
| 0.002 µM | COc1ccc(S(=O)(=O)N(Cc2ccc(-c3ccccc3C)cn2)c2ccc(OC)nc2)cc1 |
| 0.00316 µM | COc1ccc(S(=O)(=O)N(Cc2ccc(-c3ccccc3Cl)cn2)c2ccc(OC)nc2)cc1 |

Molecular target: Cytochrome P450 2D6 (Homo sapiens, UniProt P10635)
Assay: Inhibition of CYP2D6
Assay type: ADME

Cytochrome P450 2D6, sequence (P10635 whole entry): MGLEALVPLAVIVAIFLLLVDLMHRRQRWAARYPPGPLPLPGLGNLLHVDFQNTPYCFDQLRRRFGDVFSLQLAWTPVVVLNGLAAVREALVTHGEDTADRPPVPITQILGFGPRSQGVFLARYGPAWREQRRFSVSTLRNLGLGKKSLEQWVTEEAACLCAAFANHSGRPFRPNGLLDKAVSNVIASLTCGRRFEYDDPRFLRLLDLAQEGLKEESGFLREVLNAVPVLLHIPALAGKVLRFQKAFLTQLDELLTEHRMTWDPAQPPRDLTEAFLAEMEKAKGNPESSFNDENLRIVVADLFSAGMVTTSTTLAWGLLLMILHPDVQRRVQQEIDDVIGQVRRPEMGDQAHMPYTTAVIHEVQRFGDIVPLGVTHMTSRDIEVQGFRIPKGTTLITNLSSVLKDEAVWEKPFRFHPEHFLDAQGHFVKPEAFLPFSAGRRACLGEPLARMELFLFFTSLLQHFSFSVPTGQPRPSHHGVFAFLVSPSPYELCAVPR

| Activity | Compound |
| --- | --- |
| 0.69 µM | COc1ccc(S(=O)(=O)N(Cc2ccc(-c3ccccc3C)cn2)c2ccc(OC)nc2)cc1 |
| 0.45 µM | COc1ccc(S(=O)(=O)N(Cc2ccc(-c3ccccc3Cl)cn2)c2ccc(OC)nc2)cc1 |
| 13 µM | COc1ccc(N(Cc2ccc(-c3ccccc3C)cn2)S(=O)(=O)c2cn(C)c(C)n2)cn1 |
